Data as given in patent US20260103465A1, “GLYCOGEN SYNTHASE KINASE 3 INHIBITORS AND USES THEREOF” (The Broad Institute, Inc., priority 2023, published 2026).
Like-named read-outs stand apart in the source and are kept apart here.

Columns and labels:
[1] = target: T1, GSK3b (GST-full length GSK3b) (Homo sapiens, UniProt P49841); experiment: GSK3b TR-FRET kinase inhibition assay; format: biochemical
T1 construct: GST-full length GSK3b: [SignalChem G08-9G]; purchased SignalChem G08-9G
Method in brief: (§1)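 IC50 derived from normalized 665/615 TR-FRET signal (Tb anti-pSer641 antibody, streptavidin-d2), read after EDTA stop. Reaction: 1 nM GST-full-length enzyme, 30 min compound pre-incubation, 100 min at ambient temperature in Tris pH 7.5 with 1% DMSO, 200 nM biotinylated primed glycogen synthase peptide, ATP 2 μM to 1 mM.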

[2] = target: T2, GSK3a (GST-full length GSK3a) (Homo sapiens, UniProt P49840); experiment: GSK3a TR-FRET kinase inhibition assay; format: biochemical
T2 construct: GST-full length GSK3a [SignalChem G08-10G]; purchased SignalChem G08-10G
Method in brief: as §1

[3] = 1 mM ATP, Table 3, read-out: GSK3b TR-FRET 1 mM ATP Average IC50
[4] = 1 mM ATP, Table 3, read-out: GSK3a TR-FRET 1 mM ATP Average IC50
[5] = 2 μM ATP, read-out: GSK3β TR-FRET 2 μM ATP GMean IC50
[6] = 4 μM ATP, read-out: GSK3α TR-FRET 4 μM ATP GMean IC50
[7] = 1 mM ATP, Table 5, read-out: GSK3β TR-FRET 1 mM ATP Average IC50
[8] = 1 mM ATP, Table 5, read-out: GSK3α TR-FRET 1 mM ATP Average IC50

T2 sequence (P49840 whole entry): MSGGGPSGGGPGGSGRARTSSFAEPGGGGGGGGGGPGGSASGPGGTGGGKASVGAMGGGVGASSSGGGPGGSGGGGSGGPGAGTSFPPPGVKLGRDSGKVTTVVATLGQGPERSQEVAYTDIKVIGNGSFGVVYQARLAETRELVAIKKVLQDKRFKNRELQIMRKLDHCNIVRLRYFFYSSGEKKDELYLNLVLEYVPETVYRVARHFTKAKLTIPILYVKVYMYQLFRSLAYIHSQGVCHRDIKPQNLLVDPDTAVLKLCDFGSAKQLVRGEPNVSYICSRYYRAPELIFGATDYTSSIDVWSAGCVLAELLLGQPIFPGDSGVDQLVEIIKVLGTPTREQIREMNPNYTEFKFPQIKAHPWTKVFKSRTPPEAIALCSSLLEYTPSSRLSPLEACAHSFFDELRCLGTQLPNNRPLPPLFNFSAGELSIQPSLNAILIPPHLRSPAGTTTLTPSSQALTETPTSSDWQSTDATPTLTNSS
T1 sequence (P49841 whole entry): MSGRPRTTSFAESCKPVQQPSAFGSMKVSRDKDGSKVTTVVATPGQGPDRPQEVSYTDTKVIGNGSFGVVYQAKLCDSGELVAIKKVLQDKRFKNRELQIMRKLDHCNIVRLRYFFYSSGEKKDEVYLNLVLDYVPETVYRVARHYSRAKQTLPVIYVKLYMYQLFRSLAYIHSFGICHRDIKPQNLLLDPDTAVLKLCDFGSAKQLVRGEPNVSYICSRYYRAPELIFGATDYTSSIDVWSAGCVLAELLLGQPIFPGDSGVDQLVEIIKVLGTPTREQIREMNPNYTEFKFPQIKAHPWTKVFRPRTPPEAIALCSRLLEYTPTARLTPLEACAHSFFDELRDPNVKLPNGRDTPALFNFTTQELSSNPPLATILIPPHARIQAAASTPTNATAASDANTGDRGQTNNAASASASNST

Row | IC50 [1, 3] [nM] | IC50 [2, 4] [nM] | Structure (SMILES) | other results
1 | 5000 to 20000 | 5000 to 20000 | CC1(C)CC(=O)C2=C(C1)Nc1ncc(F)c(C3CC3)c1C2(C)c1cccc(S(C)(=O)=O)c1 (single isomer, unassigned) [Compound 153B] | 
2 | 1000 to 5000 | 100 to 1000 | COc1cncc(F)c1-c1cccc(C2(C)C3=C(CC(C)(C)CC3=O)Nc3ncc(C)cc32)c1 (single isomer, unassigned) [Compound 155A] | 
3 | 5000 to 20000 | 5000 to 20000 | COc1cncc(F)c1-c1cccc(C2(C)C3=C(CC(C)(C)CC3=O)Nc3ncc(C)cc32)c1 (single isomer, unassigned) [Compound 155B] | 
4 | 100 to 1000 | ≤ 100 | COc1cncc(F)c1-c1cccc(C2(C)C3=C(CC(C)(C)CC3=O)Nc3ncc(F)cc32)c1 (single isomer, unassigned) [Compound 156A] | 
5 | 5000 to 20000 | 5000 to 20000 | COc1cncc(F)c1-c1cccc(C2(C)C3=C(CC(C)(C)CC3=O)Nc3ncc(F)cc32)c1 (single isomer, unassigned) [Compound 156B] | 
6 | 100 to 1000 | 1000 to 5000 | CC1(C)CC(=O)C2=C(C1)Nc1ncc(C(F)(F)F)cc1C2(C)c1cccc(S(C)(=O)=O)c1 (single isomer, unassigned) [Compound 157A] | 
7 | 5000 to 20000 | 5000 to 20000 | CC1(C)CC(=O)C2=C(C1)Nc1ncc(C(F)(F)F)cc1C2(C)c1cccc(S(C)(=O)=O)c1 (single isomer, unassigned) [Compound 157B] | 
8 | 100 to 1000 | 100 to 1000 | CC1(C)CC(=O)C2=C(C1)Nc1ncccc1C2(C)c1cccc(-c2ccncc2N2CCCC2)c1 (single isomer, unassigned) [Compound 158A] | 
9 | 100 to 1000 | 100 to 1000 | CC(C)(C)Cn1nccc1-c1cccc(C2(C)C3=C(CC(C)(C)CC3=O)Nc3ncc(F)cc32)c1 (single isomer, unassigned) [Compound 160A] | 
10 | 1000 to 5000 | 5000 to 20000 | CC1(C)CC(=O)C2=C(C1)Nc1ncccc1C2(C)c1cccc(-c2ccncc2OCC(F)F)c1 (single isomer, unassigned) [Compound 162A] | 
11 | 100 to 1000 | 100 to 1000 | CC1(C)CC(=O)C2=C(C1)Nc1ncccc1C2(C)c1cccc(-c2ccncc2OCC(F)F)c1 (single isomer, unassigned) [Compound 162B] | 
12 | 100 to 1000 | 100 to 1000 | CC1(C)CC(=O)C2=C(C1)Nc1ncccc1C2(C)c1cccc(-c2ccncc2CC(F)(F)F)c1 (single isomer, unassigned) [Compound 163A] | 
13 | 1000 to 5000 | 1000 to 5000 | CC1(C)CC(=O)C2=C(C1)Nc1ncccc1C2(C)c1cccc(-c2ccncc2N2CCOCC2)c1 (single isomer, unassigned) [Compound 164A] | 
14 | 100 to 1000 | 100 to 1000 | CCC1(c2cccc(-c3ccnc4c3CCCC4)c2)C2=C(CC(C)(C)CC2=O)Nc2ncc(F)cc21 (single isomer, unassigned) [Compound 165A] | IC50 [1, 5]: > 5000 nM; IC50 ([1]; 10 μM ATP, read-out: GSK3b 10 μM ATP Average IC50): ≤ 100 nM; IC50 ([1]; 100 μM ATP, read-out: GSK3b 100 μM ATP Average IC50): ≤ 100 nM; IC50 [2, 6]: 1000 to 5000 nM; IC50 ([2]; 10 μM ATP, read-out: GSK3a 10 μM ATP Average IC50): ≤ 100 nM; IC50 ([2]; 100 μM ATP, read-out: GSK3a 100 μM ATP Average IC50): ≤ 100 nM
15 | 100 to 1000 | 100 to 1000 | CC1(C)CC(=O)C2=C(C1)Nc1ncc(F)c(C(F)(F)F)c1C2(C)c1cccc(S(C)(=O)=O)c1 (single isomer, unassigned) [Compound 166A] | 
16 | 5000 to 20000 | 5000 to 20000 | CC1(C)CC(=O)C2=C(C1)Nc1ncc(F)c(C(F)(F)F)c1C2(C)c1cccc(S(C)(=O)=O)c1 (single isomer, unassigned) [Compound 166B] | 
17 | 100 to 1000 | 100 to 1000 | COc1cncc(F)c1-c1cccc(C2(C)C3=C(CC(C)(C)CC3=O)Nc3ncc(C4CC4)cc32)c1 (single isomer, unassigned) [Compound 167A] | 
18 | 1000 to 5000 | 1000 to 5000 | COc1cncc(F)c1-c1cccc(C2(C)C3=C(CC(C)(C)CC3=O)Nc3ncc(C4CC4)cc32)c1 (single isomer, unassigned) [Compound 167B] | 
19 | 100 to 1000 | 100 to 1000 | CC1(C)CC(=O)C2=C(C1)Nc1ncc(F)cc1C2(C)c1cccc(-c2c(F)cncc2CC2CC2)c1 (single isomer, unassigned) [Compound 169A] | 
20 | 1000 to 5000 | 1000 to 5000 | Cc1nn(C)c(C)c1-c1cccc(C2(C)C3=C(CC(C)(C)CC3=O)Nc3ncc(C(F)(F)F)cc32)c1 (single isomer, unassigned) [Compound 170A] | 
21 | 1000 to 5000 | 5000 to 20000 | Cc1nn(C)c(C)c1-c1cccc(C2(C)C3=C(CC(C)(C)CC3=O)Nc3ncc(C(F)(F)F)cc32)c1 (single isomer, unassigned) [Compound 170B] | 
22 | 1000 to 5000 | 1000 to 5000 | CC(C)n1cncc1-c1cccc(C2(C)C3=C(CC(C)(C)CC3=O)Nc3ncc(C(F)(F)F)cc32)c1 (single isomer, unassigned) [Compound 171A] | 

Row | IC50 [1, 3] [nM] | IC50 [2, 4] [nM] | Structure (SMILES) | other results
23 | 100 to 1000 | 1000 to 5000 | CC(C)n1cncc1-c1cccc(C2(C)C3=C(CC(C)(C)CC3=O)Nc3ncc(C(F)(F)F)cc32)c1 (single isomer, unassigned) [Compound 171B] | 
24 | 100 to 1000 | 100 to 1000 | COc1cncc(CC(C)(C)C)c1-c1cccc(C2(C)C3=C(CC(C)(C)CC3=O)Nc3ncccc32)c1 (single isomer, unassigned) [Compound 172A] | 
25 | 1000 to 5000 | 1000 to 5000 | CC(C)(C)Cc1cncc(F)c1-c1cccc(C2(C)C3=C(CC(C)(C)CC3=O)Nc3ncc(F)cc32)c1 (single isomer, unassigned) [Compound 173A] | 
26 | 1000 to 5000 | 1000 to 5000 | COc1cncc(F)c1-c1cccc(C2(C)C3=C(CC(C)(C)CC3=O)Nc3ncc(C(F)(F)F)cc32)c1 (single isomer, unassigned) [Compound 174A] | 
27 | 100 to 1000 | 1000 to 5000 | COc1cncc(F)c1-c1cccc(C2(C)C3=C(CC(C)(C)CC3=O)Nc3ncc(C(F)(F)F)cc32)c1 (single isomer, unassigned) [Compound 174B] | 
28 |  |  | CC1(C)CC2=C(C(=O)[C@@H]1F)[C@@](C)(c1ccccc1)c1c(ncc(F)c1C#N)N2 (single isomer, unassigned) [Compound 616A] | IC50 [1, 7]: 100 to 1000 nM; IC50 [2, 8]: 100 to 1000 nM
29 |  |  | CC1(C)CC2=C(C(=O)[C@@H]1F)[C@](C)(c1ccccc1)c1c(ncc(F)c1C#N)N2 (single isomer, unassigned) [Compound 616B] | IC50 [1, 7]: 100 to 1000 nM; IC50 [2, 8]: 100 to 1000 nM
30 |  |  | CC1(C)CC2=C(C(=O)[C@H]1F)[C@@](C)(c1ccccc1)c1c(ncc(F)c1C#N)N2 (single isomer, unassigned) [Compound 616C] | IC50 [1, 7]: 5000 to 20000 nM; IC50 [2, 8]: 5000 to 20000 nM
31 |  |  | CC1(C)CC2=C(C(=O)[C@H]1F)[C@](C)(c1ccccc1)c1c(ncc(F)c1C#N)N2 (single isomer, unassigned) [Compound 616D] | IC50 [1, 7]: 5000 to 20000 nM; IC50 [2, 8]: 5000 to 20000 nM
32 |  |  | CC1(C)CC(=O)C2=C(Nc3ncc(F)c(C#N)c3[C@]2(C)c2ccccc2)[C@H]1F (single isomer, unassigned) [Compound 617A] | IC50 [1, 7]: 5000 to 20000 nM; IC50 [2, 8]: 5000 to 20000 nM
33 |  |  | CC1(C)CC(=O)C2=C(Nc3ncc(F)c(C#N)c3[C@@]2(C)c2ccccc2)[C@@H]1F (single isomer, unassigned) [Compound 617B] | IC50 [1, 7]: 100 to 1000 nM; IC50 [2, 8]: 100 to 1000 nM
34 |  |  | CC1(C)CC(=O)C2=C(Nc3ncc(F)c(C#N)c3[C@]2(C)c2ccccc2)[C@@H]1F (single isomer, unassigned) [Compound 617C] | IC50 [1, 7]: 5000 to 20000 nM; IC50 [2, 8]: 5000 to 20000 nM
35 |  |  | CC1(C)CC(=O)C2=C(Nc3ncc(F)c(C#N)c3[C@@]2(C)c2ccccc2)[C@H]1F (single isomer, unassigned) [Compound 617D] | IC50 [1, 7]: 100 to 1000 nM; IC50 [2, 8]: 100 to 1000 nM
36 |  |  | CC1(C)CC(=O)C2=C(Nc3ncc(C(F)F)c(C#N)c3[C@]2(C)c2ccccc2)[C@H]1F (single isomer, unassigned) [Compound 633A] | IC50 [1, 7]: 1000 to 5000 nM; IC50 [2, 8]: 5000 to 20000 nM
37 |  |  | CC1(C)CC(=O)C2=C(Nc3ncc(C(F)F)c(C#N)c3[C@@]2(C)c2ccccc2)[C@@H]1F (single isomer, unassigned) [Compound 633B] | IC50 [1, 7]: 100 to 1000 nM; IC50 [2, 8]: 1000 to 5000 nM
38 |  |  | CC1(C)CC(=O)C2=C(Nc3ncc(C(F)F)c(C#N)c3[C@]2(C)c2ccccc2)[C@@H]1F (single isomer, unassigned) [Compound 633C] | IC50 [1, 7]: 5000 to 20000 nM; IC50 [2, 8]: 5000 to 20000 nM
39 |  |  | CC1(C)CC(=O)C2=C(Nc3ncc(C(F)F)c(C#N)c3[C@@]2(C)c2ccccc2)[C@H]1F (single isomer, unassigned) [Compound 633D] | IC50 [1, 7]: 100 to 1000 nM; IC50 [2, 8]: 1000 to 5000 nM
40 |  |  | CCC1(c2ccccc2)C2=C(CC(C)(C)NC2=O)Nc2ncccc21 (single isomer, unassigned) [Compound 1002A] | IC50 [1, 5]: > 5000 nM; IC50 [2, 6]: > 5000 nM
41 |  |  | CCC1(c2ccccc2)C2=C(CC(C)(C)NC2=O)Nc2ncccc21 (single isomer, unassigned) [Compound 1002B] | IC50 [1, 5]: 1000 to 5000 nM; IC50 [2, 6]: 1000 to 5000 nM
42 |  |  | CCC1(c2ccccc2)C2=C(Nc3ncccc31)C(F)C(C)(C)CC2=O (single isomer, unassigned) [Compound 1006A] | IC50 [1, 5]: > 5000 nM; IC50 [2, 6]: > 5000 nM
43 |  |  | CCC1(c2ccccc2)C2=C(Nc3ncccc31)C(F)C(C)(C)CC2=O (single isomer, unassigned) [Compound 1006B] | IC50 [1, 5]: > 5000 nM; IC50 [2, 6]: > 5000 nM
